Measured values taken from paper PMC8151276, “An Integrated Approach toward NanoBRET Tracers for Analysis of GPCR Ligand Engagement” (Molecules, 2021).

Legend:
Assay type in all cases: binding
[1] = target: T1, LGR6 (Homo sapiens, UniProt Q9HBX8); experiment: NanoBRET screen HiBiT-LGR6 in HEK293; settings: LGR6
T1 construct: purchased Promega (in-house HiBiT-GPCR construct library, NanoBRET)
T1 sequence (Q9HBX8 25-967): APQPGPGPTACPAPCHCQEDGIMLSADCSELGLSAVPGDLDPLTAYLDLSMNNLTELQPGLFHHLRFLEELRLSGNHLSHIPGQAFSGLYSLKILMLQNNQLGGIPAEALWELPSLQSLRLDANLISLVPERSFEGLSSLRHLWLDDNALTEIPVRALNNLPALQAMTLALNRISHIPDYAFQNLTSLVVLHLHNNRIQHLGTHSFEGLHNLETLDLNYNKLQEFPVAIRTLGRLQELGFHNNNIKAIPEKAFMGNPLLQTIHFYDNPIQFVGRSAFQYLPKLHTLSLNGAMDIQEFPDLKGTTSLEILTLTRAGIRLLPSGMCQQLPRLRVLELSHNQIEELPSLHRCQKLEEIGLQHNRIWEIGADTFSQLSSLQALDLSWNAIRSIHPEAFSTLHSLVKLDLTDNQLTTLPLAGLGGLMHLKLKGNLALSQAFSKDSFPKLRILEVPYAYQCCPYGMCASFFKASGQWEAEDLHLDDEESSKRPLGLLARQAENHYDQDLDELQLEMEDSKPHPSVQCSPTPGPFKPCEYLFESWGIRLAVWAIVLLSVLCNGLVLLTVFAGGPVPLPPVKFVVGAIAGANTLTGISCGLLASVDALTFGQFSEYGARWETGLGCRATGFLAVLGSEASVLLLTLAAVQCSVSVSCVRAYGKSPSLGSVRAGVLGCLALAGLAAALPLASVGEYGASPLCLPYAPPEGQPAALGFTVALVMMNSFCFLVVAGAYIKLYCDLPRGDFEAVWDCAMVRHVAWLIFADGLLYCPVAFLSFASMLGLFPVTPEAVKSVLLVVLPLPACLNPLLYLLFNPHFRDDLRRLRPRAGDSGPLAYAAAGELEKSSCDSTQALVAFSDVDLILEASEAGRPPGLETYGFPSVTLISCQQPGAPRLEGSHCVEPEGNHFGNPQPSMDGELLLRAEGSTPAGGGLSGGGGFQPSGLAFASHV
Protocol: (§1) Each tracer candidate was screened across the entire library of HiBiT-GPCR constructs using NanoBRET as the detection modality. As depicted in Figure 4A, the specificity of interactions was evaluated through decrease in BRET due to competitive displacement of a bound tracer by excess parental compound. Each tracer was analyzed for binding to each HiBiT-GPCR fusion in the absence and in the presence of competing parental compound. Briefly, HEK293 cells were transfected with HiBiT-GPCR constructs diluted into promoterless DNA to reduce expression and maximize translocation to the cell surface. Each tracer candidate was then screened at concentrations of 1 μM and 0.1 μM across cells expressing these fusions. Cells were treated for 1.5 h with tracer either alone or in the presence of 20 μM competing parental compound (i.e., control). BRET was measured upon addition of purified LgBiT and subsequent complementation with HiBiT genetically fused to a GPCR. The specificity of interactions was assessed through a decrease in BRET signal due to competitive displacement of the bound tracer. To further gauge the robustness of these interactions, the fold response over the control (i.e., BRETtracer/BRETcontrol) was calculated. We chose a 1.5-fold response, which translates to ≥7-fold signal over noise as the minimal threshold required to score an interaction as positive. […]. Below we highlight the screening results obtained for our exemplary fluorescent tracers based on Clozapine, Amitriptyline and AZD1283.
(§2) HiBiT-GPCR DNA constructs were diluted in 10 mM Tris pH 8 to a final concentration of 0.01 μg/μL, arrayed in 96-well plates and stored at −20 °C. For transfection, HEK293 cells were suspended in Opti-MEM (without phenol red) supplemented with 2% fetal bovine serum (Seradigm) and 100 units/mL penicillin–streptomycin (Gibco) at a final concentration of 220,000 cells/mL and dispensed into white 96-well plates at 90 μL/well. Subsequent transfections and screens were carried using an Agilent Bravo Automated Liquid Handling Platform. First, the 96-well HiBiT DNA arrays were diluted 25-fold in Opti-MEM (without serum or phenol red) to a final concentration of 0.0004 μg/μL and 20 μL of the diluted DNAs were transferred into new 96-well plates. Next, promoterless carrier DNA (1 μg/μL) was diluted 25-fold (0.04 μg/μL) and then dispensed into the diluted arrays at 20 μL/well. Following brief mixing, Viafect transfection reagent (Promega) diluted 16-fold into Opti-MEM was dispensed into the plates at 40 μL/well. After mixing by pipetting, plates were incubated for 10 min on the pipetting station deck. The DNA-transfection reagent complexes were then added to plates containing cells. To facilitate the screen, 10 μL of DNA-transfection reagent complexes were added in duplicates to the top 4 and bottom 4 rows, resulting in two identical 48-well arrays per plate. Plates with transfected cells were incubated for 18–20 h at 37 °C/5% CO2. A screen of each tracer across the entire library using two different concentrations requires duplicate plates of transfected cells. Depending on the number of tracers being screened, transfections can be scaled up using the same ratios. The next day, for each tracer, four 20× screening solutions in tracer dilution buffer (Promega) were prepared: two duplicates at final concentration of 20 μM and two duplicates at a final concentration of 2 μM. A competing unmodified compound was added to one of each duplicate at a final concentration of 400 μM. The four resulting solutions were diluted 4-fold in Opti-MEM without serum or phenol red to generate 5× solutions (5 µM and 0.5 µM tracer +/− 100 μM competing compound). To screen the library, a BioTek MultiFlo FX liquid dispenser was used to dispense 22.5 µL of tracer solution to the top 4 rows and 22.5 µL tracer + competing compound solution to the 4 bottom rows. Plates were briefly mixed on an orbital shaker and incubated for 1.5 h at room temperature. […]

[2] = target: T2, NMUR1 (Homo sapiens, UniProt Q9HB89); experiment: NanoBRET screen HiBiT-NMUR1 in HEK293; settings: NMUR1
T2 construct: purchased Promega (in-house HiBiT-GPCR construct library, NanoBRET)
T2 sequence (Q9HB89 1-426): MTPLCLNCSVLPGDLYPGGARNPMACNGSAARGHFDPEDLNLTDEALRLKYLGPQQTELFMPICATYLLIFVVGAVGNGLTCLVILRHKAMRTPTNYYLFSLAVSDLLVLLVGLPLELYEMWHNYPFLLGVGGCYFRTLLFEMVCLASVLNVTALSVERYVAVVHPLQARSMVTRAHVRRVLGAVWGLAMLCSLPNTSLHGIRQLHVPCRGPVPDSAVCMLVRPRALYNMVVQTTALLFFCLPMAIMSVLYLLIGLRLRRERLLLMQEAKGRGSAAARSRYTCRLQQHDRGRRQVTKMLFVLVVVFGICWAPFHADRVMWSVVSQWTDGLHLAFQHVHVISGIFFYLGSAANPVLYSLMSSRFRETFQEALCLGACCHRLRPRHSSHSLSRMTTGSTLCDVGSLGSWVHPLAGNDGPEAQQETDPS
Protocol: as §1, §2

[3] = target: T3, FZD8 (Homo sapiens, UniProt Q9H461); experiment: NanoBRET screen HiBiT-FZD8 in HEK293; settings: FZD8
T3 construct: purchased Promega (in-house HiBiT-GPCR construct library, NanoBRET)
Protocol: as §1, §2

T3 sequence (Q9H461 28-694): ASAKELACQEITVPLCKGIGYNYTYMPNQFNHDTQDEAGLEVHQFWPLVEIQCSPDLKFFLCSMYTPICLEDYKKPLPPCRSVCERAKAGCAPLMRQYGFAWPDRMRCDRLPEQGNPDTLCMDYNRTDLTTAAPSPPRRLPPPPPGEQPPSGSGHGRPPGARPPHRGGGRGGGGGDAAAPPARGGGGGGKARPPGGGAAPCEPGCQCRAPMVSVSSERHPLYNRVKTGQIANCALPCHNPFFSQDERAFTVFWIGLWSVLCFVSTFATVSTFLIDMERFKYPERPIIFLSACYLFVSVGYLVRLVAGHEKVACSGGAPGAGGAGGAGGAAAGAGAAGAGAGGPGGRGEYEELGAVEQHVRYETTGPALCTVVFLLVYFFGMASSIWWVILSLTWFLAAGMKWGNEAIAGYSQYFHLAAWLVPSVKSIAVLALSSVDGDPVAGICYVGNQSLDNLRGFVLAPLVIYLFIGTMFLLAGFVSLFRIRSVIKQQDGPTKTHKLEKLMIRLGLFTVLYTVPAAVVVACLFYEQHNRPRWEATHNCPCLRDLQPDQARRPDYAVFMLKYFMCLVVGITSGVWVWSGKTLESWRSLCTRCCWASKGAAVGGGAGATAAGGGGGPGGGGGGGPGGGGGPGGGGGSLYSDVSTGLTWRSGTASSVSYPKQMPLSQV

Structure (SMILES): CCCn1c(=O)c2[nH]c(-c3ccc(OCC(=O)NCCNC(=O)CCOCCNC(=O)c4ccc(CNC(=O)CCc5ccc6n5[B-](F)(F)[N+]5=C(c7ccc[nH]7)C=CC5=C6)cc4)cc3)nc2n(CCC)c1=O [XAC-3-NB590]
- NanoBRET Fold Response ([1]; tracer 0.1μM): 0.99
- NanoBRET Fold Response ([1]; tracer 1μM): 0.90
- NanoBRET Fold Response ([2]; tracer 0.1μM): 0.91
- NanoBRET Fold Response ([2]; tracer 1μM): 1.00
- NanoBRET Fold Response ([3]; tracer 0.1μM): 0.95
- NanoBRET Fold Response ([3]; tracer 1μM): 1.02

Structure (SMILES): CCOC(=O)c1cc(C#N)c(N2CCC(C(=O)NS(=O)(=O)Cc3ccccc3/C=C/C(=O)NCCNC(=O)CCc3ccc4n3[B-](F)(F)[N+]3=C(c5ccc[nH]5)C=CC3=C4)CC2)nc1C [AZD1283-1-NB590]
- NanoBRET Fold Response ([1]; 0.1μM): 1.27
- NanoBRET Fold Response ([1]; 1μM): 0.90
- NanoBRET Fold Response ([2]; 0.1μM): 1.05
- NanoBRET Fold Response ([2]; 1μM): 1.04
- NanoBRET Fold Response ([3]; 0.1μM): 1.11
- NanoBRET Fold Response ([3]; 1μM): 0.71
